# Assay results published in patent US10913781B2, “Pepducin design and use” (Tufts Medical Center, Inc., priority 2011, dated 2021).
# Key:
# PAR4 = target: T1, PAR4 (Homo sapiens, UniProt Q96RI0); assay: Calcium flux assay in SW620 cells, PAR4; assay type: cell-based; set-up: endogenous in cells
# T1 sequence (Q96RI0 18-385): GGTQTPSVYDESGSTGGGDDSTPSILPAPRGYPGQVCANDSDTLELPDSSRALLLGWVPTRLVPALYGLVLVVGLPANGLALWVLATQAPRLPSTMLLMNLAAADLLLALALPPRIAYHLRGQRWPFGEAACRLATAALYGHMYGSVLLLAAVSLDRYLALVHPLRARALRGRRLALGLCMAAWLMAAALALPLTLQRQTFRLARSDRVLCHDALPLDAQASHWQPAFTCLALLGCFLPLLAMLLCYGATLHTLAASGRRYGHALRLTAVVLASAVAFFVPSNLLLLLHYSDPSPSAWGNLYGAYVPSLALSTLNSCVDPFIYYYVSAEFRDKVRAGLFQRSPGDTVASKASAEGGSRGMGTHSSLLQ
# PAR2 [1] = target: T2, PAR2 (Homo sapiens, UniProt P55085); assay: Human neutrophil chemotaxis to PAR2 agonists (trypsin, SLIGRL, tryptase); assay type: cell-based; set-up: SW620 colon adenocarcinoma cells that endogenously express PAR2; endogenous in cells; host or cells: SW620 (in A7 the SW620 cells were additionally stably transfected with PAR1)
# Protocol: (§1) (A) Human neutrophils (n=4 normal volunteers) were analyzed for surface expression of human PAR1, PAR2, and PAR4 by flow cytometry with PAR-specific antibodies. […] Chemotaxis index is the ratio of directed versus random migration over 30 min through a 5-μm pore filter.
# (§2) The ability of some pepducin embodiments of the invention to antagonize PAR2-dependent activity of human neutrophils was tested. Neutrophils were isolated from the peripheral blood of healthy human volunteers and found to express high levels of surface PAR2 and PAR4 and lower apparent levels of PAR1 by flow cytometry (FIG. 3A). […] As human PAR2 shares 85% identity with mouse PAR2 and the mouse i3 loop retains all of the critical pharmacophores identified in the human PAR2 i3 loop, cross-species inhibition with mouse cells was tested.
# Target sequence in this assay (P55085 26-397): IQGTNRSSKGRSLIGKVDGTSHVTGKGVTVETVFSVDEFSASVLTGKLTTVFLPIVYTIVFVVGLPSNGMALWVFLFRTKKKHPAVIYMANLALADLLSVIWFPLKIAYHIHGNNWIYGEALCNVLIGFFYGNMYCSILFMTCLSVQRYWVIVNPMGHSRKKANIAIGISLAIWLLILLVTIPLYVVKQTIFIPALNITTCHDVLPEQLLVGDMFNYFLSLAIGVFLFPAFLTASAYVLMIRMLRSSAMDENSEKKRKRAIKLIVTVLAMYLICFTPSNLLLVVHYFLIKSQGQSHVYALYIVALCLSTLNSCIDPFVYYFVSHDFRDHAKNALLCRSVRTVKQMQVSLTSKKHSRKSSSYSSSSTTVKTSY
# PAR2 [2] = target: T3, PAR2 (Mus musculus, UniProt P55086); assay: Mouse neutrophil chemotaxis to trypsin; assay type: cell-based; settings: 30 nM trypsin
# T3 sequence (P55086 26-399): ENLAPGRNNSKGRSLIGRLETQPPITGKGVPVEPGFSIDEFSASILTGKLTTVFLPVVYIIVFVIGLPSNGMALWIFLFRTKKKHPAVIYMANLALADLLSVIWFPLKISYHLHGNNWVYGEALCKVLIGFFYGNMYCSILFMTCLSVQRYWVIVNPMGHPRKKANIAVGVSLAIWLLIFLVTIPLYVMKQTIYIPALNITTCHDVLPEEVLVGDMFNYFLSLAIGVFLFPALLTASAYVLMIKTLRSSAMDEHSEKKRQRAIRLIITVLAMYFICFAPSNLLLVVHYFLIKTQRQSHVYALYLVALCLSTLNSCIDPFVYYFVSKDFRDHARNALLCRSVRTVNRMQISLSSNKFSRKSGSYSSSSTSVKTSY
# Protocol: as §1, §2
# PAR1 = target: T4, PAR1 (Homo sapiens, UniProt P25116); assay: PAR1-dependent human platelet aggregation (SFLLRN); assay type: cell-based; set-up: endogenous in cells; settings: 2.5 μM SFLLRN; P2pal-18S 1 μM or 5 μM
# T4 sequence (P25116 22-425): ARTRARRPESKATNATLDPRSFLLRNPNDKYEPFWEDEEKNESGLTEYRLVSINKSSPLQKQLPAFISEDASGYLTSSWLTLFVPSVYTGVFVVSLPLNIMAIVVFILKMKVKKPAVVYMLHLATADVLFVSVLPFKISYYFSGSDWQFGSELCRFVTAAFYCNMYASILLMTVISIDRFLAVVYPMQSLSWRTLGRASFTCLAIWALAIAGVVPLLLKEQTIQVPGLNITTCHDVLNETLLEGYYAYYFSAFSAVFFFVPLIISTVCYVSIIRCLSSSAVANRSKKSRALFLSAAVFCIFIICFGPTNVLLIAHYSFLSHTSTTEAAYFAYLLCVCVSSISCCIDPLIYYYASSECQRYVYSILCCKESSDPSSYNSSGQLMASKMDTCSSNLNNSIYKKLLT
# Protocol: FIG. 5 illustrates: (A) PAR1-dependent human platelet aggregation is not affected by P2pal-18S. Gel-filtered platelets were incubated with 2.5 μM SFLLRN (SEQ ID NO:1) to induce PAR1-dependent platelet aggregation. […] Error bars represent mean±SD. […] Cells were lifted and incubated in PBS/0.4% BSA for 30 min at 25° C. with 0.5-30 μM P2pal-18S or P2pal-14GQ. Propidium iodide (PI) was added directly to the cells and after a 15 min incubation, PI uptake was quantified by flow cytometry. […] Error bars represent ±SEM.
# PAR2 [3] = target: T2, PAR2; assay: Agonist | (%)^‡; set-up: SW620 colon adenocarcinoma cells that endogenously express PAR2; endogenous in cells; host or cells: SW620 (in A7 the SW620 cells were additionally stably transfected with PAR1)
# Target sequence in this assay (P55085 26-397 limits assumed): as the sequence (P55085 26-397) above
# PAR2 [4] = target: T3, PAR2; assay: Mast cell conditioned media-induced mouse paw edema; assay type: in vivo; set-up: from tissue; host or cells: living C57BL/6 mice, hindpaw; settings: 10 mg/kg
# Protocol: (A) Mast cells were treated with 2 mg/mL of mast cell degranulating agent 48/80 or 2% 1-carrageenan/4% kaolin. […] (B) P2pal-18S inhibits human neutrophil chemotaxis (n=6) to mast cell media. Human neutrophils were incubated with […] P2pal-18S, or […] mast cell tryptase inhibitor APC-366 and allowed to migrate 30 min toward CM from mast cells. (C) C57BL/6 mice (n=5) were pretreated with the tryptase inhibitor APC-366 (5 mg/kg, s.c.) or vehicle (20% DMSO) and then challenged with intraplantar injection of 1-carrageenan/kaolin. (D) Mast cell conditioned media (30 μL of 1-carrageenan/kaolin stimulated media) was injected into the hindpaws of C57BL/6 mice treated with 10 mg/kg P2pal-18S or vehicle (n=5). Data represent mean±SEM. #, P=0.07, *, P<0.05 and **, P<0.005. (E) Mast cell-deficient mice have a significant reduction in 1-carrageenan/kaolin induced paw edema (8 h time point, n=4-6) as compared to littermate controls. Mast-cell deficient mice or littermate controls with intact mast cells were treated with P2pal-18S (10 mg/kg, s.c.) or vehicle and hind paws challenged with 1-carrageenan/kaolin irritant. Error bars represent mean±SEM.
# To examine whether mast cells and mast cell tryptase were activating PAR2 in the paw edema model in vivo, mice were depleted of mast cells through pretreatment with compound 48/80 (Carvalho M et al. Eur J Pharmacol (2005), 525: 161-169). […]
# PAR2 [5] = target: T2, PAR2; assay: Agonist | (%)^†; set-up: SW620 colon adenocarcinoma cells that endogenously express PAR2; endogenous in cells; host or cells: SW620 (in A7 the SW620 cells were additionally stably transfected with PAR1); settings: 4 µM
# Target sequence in this assay (P55085 26-397 limits assumed): as the sequence (P55085 26-397) above
# Protocol: (A) Agonist and antagonist activity of third intracellular (i3) loop PAR2 pepducins (structure shown on top) using calcium flux assays with SW620 colon adenocarcinoma cells that endogenously express PAR2. Each column of three calcium flux traces corresponds to the i3 pepducin sequence shown above. The top row is the agonist activity of 3-4 μM pepducin and the middle row is the agonist activity of 14-15 μM pepducin. […] Final concentration of DMSO vehicle was 0.2%. […] (C) Agonist activity for each pepducin from (A) is reported as initial velocity of calcium flux at 4 μM pepducin (†), or at 14-15 μM pepducin (‡).
smiles,measurement,setting,value
CCCCCCCCCCCCCCCC(=O)N[C@@H](CCCNC(=N)N)C(=O)N[C@@H](CO)C(=O)N[C@@H](CO)C(=O)N[C@@H](C)C(=O)N[C@@H](CCSC)C(=O)N[C@@H](CC(=O)O)C(=O)N[C@@H](CCC(=O)O)C(=O)N[C@@H](CC(N)=O)C(=O)N[C@@H](CO)C(=O)N[C@@H](CCC(=O)O)C(=O)N[C@@H](CCCCN)C(=O)N[C@@H](CCCCN)C(=O)N[C@@H](CCCNC(=N)N)C(=O)N[C@@H](CCCCN)C(=O)N[C@@H](CO)C(=O)N[C@@H](C)C(=O)N[C@H](C(=O)N[C@@H](CCCCN)C(N)=O)[C@@H](C)CC [P2pal-18S],Inhibition of PAR4 calcium flux,PAR4,did not inhibit
same,Inhibition of chemotactic migration to tryptase,"PAR2 [1]; 0.3 μM pepducin, 100 nM tryptase",completely blocked
same,IC50,"PAR2 [1]; gradients of trypsin (30 nM) and SLIGRL (10 μM), 30 min, read-out: IC50, inhibition of neutrophil chemotaxis",0.14 to 0.2 µM
same,Inhibition of mouse neutrophil migration,PAR2 [2],completely inhibited
same,Effect on PAR1-dependent platelet aggregation,PAR1,had no effect
same,Agonist | (%)^‡,PAR2 [3],3%
same,Decrease in peak development of edema,"PAR2 [4]; at 4 h, mast cell media intraplantar",50%
same,Protection against edema at later times,PAR2 [4]; at 8 h and thereafter,complete protection
same,Agonist | (%)^†,PAR2 [5],3%
